Where two headings read alike, the source gives them in different places. A value given as a limit tells only on which side of the number the result lay.

Assay [1] has as its system MOLM-13 cells. Put plainly: MOLM-13 96 Hour cell proliferation assay (Cell Titer-Glo). In kind it is cell-based. The note with it: Homo sapiens. In outline:
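MOLM-13 cells were seeded at 600 cells/well in RPMI 1640 with 10% FBS, then incubated overnight. Compounds were added at 0.25% DMSO final for 96 h at 37° C, with CellTiter-Glo luminescence read-out. Values normalized to staurosporine (100% death) and DMSO (0%); IC50 from 4-parameter logistic fit.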

Assay [2] has as its target METTL1/WDR4 (Homo sapiens, UniProt Q9UBP6). The assay can be described thus: METTL1 assay (3H-SAM flashplate scintillation). Type of assay: biochemical. In outline: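 Radiometric methyltransfer by METTL1/WDR4 (6.25 nM f.c., 5 min preincubation) at ambient temperature in HEPES pH 7.5, KCl, MgCl2, DTT; started with 25 nM 3′-biotinylated RNA and 60 nM 3H-SAM, run 20 min, quenched with 15 μM cold SAM. Product captured on streptavidin flashplates (2 h, 25° C), counted by scintillation.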

Assay [3] concerns m^6 A in cellular mRNA of MOLM-13 cells. The assay can be described thus: m^6 A-mRNA LC-MS/MS assay (m^6 A cellular assay). In kind it is cell-based. The note with it: Homo sapiens, 24 hours incubation, LC-MS/MS of m^6 A/A in mRNA. The procedure, abridged:
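MOLM-13 cells in RPMI 1640 with 10% FBS dosed 24 h at 37° C. with 8-point, 4-fold series from 25 μM to 1.5 nM, 0.25% DMSO. Extracted mRNA digested to nucleosides and quantified by LC-MS/MS against standards; result expressed as 100*(m^6 A/A).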

Assay [4] concerns MOLM-13 cells. The assay can be described thus: MOLM-13 48 Hour cell proliferation assay (Cell Titer-Glo). Type of assay: cell-based. The note with it: Homo sapiens. The protocol: MOLM-13 48 Hour Cell Proliferation Assay
MOLM-13 (DSMZ) cells were seeded at 1000 cells per well in a volume of 44 μL in a Falcon 384-well tissue culture treated clear bottom microplate in RPMI 1640 media containing 10% fetal bovine serum using a Multidrop Combi (ThermoFisher Scientific). Cells were incubated overnight at 37° C. in a humidified tissue culture incubator. The Mosquito® HTS Liquid Handler was used to make a compound/media intermediate plate by aliquoting […] of compound from the initial compound dilution plate (concentrations ranging from 10.0 mM to 38.0 nM in 100% DMSO) into a V bottom 384-well screen matrix plate containing 49 µL of media containing the appropriate serum (50-fold dilution, 2% DMSO). The Apricot liquid handling system was used to transfer […] compounds from the intermediate plate into the Falcon 384-well tissue culture plate containing 44 μL cells (10-point, 4-fold dilution spanning concentrations 25.0 μM to […], 0.25% DMSO final), and placed in a humidified tissue culture incubator at 37° C. After 48 hours, 25 μL of Cell Titer-Glo reagent (Promega) was added to each well using a Multidrop Combi. The plate was protected from light and placed on an IKA plate shaker for at 300 rpm for 10 minutes at room temperature. The plate was read on an EnVision plate reader (Perkin Elmer) using the Ultra Sensitive Luminescence protocol. Data analysis was performed by normalizing the raw luminescence units to an average of the positive control values for staurosporine (100% cell death) and the negative control values for DMSO (0% cell death). An IC50 was calculated using a 4-parameter logistic nonlinear regression model in GraphPad Prism.

Where [5] appears, read: METTL1/WDR4 6.25 nM, RNA 25 nM, 3H-SAM 60 nM, 20 min, read-out: METTL1 IC50.

Sequence of METTL1/WDR4 (Q9UBP6 whole entry, species assumed): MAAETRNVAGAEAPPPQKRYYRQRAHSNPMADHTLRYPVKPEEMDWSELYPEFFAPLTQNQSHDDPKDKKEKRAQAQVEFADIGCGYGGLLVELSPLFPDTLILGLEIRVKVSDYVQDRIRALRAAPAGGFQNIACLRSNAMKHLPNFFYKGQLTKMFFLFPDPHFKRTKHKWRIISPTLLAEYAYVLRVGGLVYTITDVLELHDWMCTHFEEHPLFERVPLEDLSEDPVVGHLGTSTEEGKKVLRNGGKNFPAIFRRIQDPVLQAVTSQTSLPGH
Sequence of METTL1/WDR4 (P57081 whole entry partner, species assumed): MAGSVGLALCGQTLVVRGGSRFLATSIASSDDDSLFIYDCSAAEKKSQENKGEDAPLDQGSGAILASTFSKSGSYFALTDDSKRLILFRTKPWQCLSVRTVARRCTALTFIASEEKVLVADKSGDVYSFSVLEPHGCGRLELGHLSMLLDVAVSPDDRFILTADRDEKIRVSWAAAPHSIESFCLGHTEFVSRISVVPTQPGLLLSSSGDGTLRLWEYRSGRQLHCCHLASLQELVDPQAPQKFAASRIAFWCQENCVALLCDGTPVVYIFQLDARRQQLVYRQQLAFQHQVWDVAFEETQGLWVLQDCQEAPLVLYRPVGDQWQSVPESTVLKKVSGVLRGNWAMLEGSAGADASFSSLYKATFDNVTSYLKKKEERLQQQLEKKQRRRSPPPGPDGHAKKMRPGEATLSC

Turning to `C[C@@H]1CCN1c1ccc2ccc(OCc3cncc(-n4cc(C5CCCC5)c5c(N)ncnc54)c3)cc2n1` [Compound I-124], the IC50 is 1000 to 10000 nM in assay [1] and above 1000 nM in assay [2] (setting [5]).

In the case of `CCNc1ccc2ccc(OCc3cccc(-n4cc(Cl)c5c(N)ncnc54)c3)cc2n1` [Compound I-61], the values for the 50% inhibitory concentration (IC50) in assay [1] and in assay [2] (setting [5]) were 1000 to 10000 nM and above 1000 nM, respectively.

Consider `CNc1ccc2ccc(OCc3cncc(-n4cc([C@H]5CCCO5)c5c(N)ncnc54)c3)cc2n1` [Compound I-112], for which the IC50 in assay [1] is below 1000 nM; in assay [2], above 1000 nM; in assay [3], 1000 to 10000 nM.

As to `CCNc1ccc2ccc(OCc3cncc(-n4cc(-c5ccn(C)n5)c5c(N)ncnc54)c3)cc2n1` [Compound I-128], the 50% inhibitory concentration (IC50) in assay [1] was 1000 to 10000 nM; in assay [2] (setting [5]) it was above 1000 nM; in assay [3], 1000 to 10000 nM.

In the case of `Nc1nc2cc(OCc3cncc(-n4ccc5c(N)ncnc54)c3)ccc2cc1Br` [Compound I-111], the IC50 in assay [1] is at least 10000 nM; in assay [2] (setting [5]), above 1000 nM.

As to `CNc1ccc2ccc(OCc3cc(Br)cc(-n4cc(Cl)c5c(N)ncnc54)c3)cc2n1` [Compound I-75], the IC50 in assay [1] was 1000 to 10000 nM; in assay [2] (setting [5]), above 1000 nM.

Consider `CNc1ccc2ccc(OCc3cncc(-n4cc(CC5CC5)c5c(N)ncnc54)c3)cc2n1` [Compound I-29], for which the IC50 in assay [4] is below 1000 nM; in assay [2] (setting [5]) it was above 1000 nM; in assay [3], 1000 to 10000 nM.

Take `CCc1cc(N(C)CCOC)c2ccc(CCc3cncc(-n4cc(-c5ccn(C)n5)c5c(N)ncnc54)c3)cc2n1` [Compound I-117]: the figures for the IC50 in assay [1], in assay [2] and in assay [3] were below 1000 nM, above 1000 nM and below 1000 nM, respectively.

Consider `CNc1ccc2ccc(OCc3cncc(-n4cc(-c5ccnn5C)c5c(N)ncnc54)c3)cc2n1` [Compound I-35], for which the IC50 is below 1000 nM in assay [4], above 1000 nM in assay [2] (setting [5]) and at least 10000 nM in assay [3].

`CCc1cc(NCCCN(C)C)c2ccc(CCc3cncc(-n4ccc5c(N)ncnc54)c3)cc2n1` [Compound I-127]: the figures for the IC50 in assay [1] and in assay [2] (setting [5]) were at least 10000 nM and above 1000 nM, respectively.

Regarding `Cn1ccc(-c2cn(-c3cncc(CCc4ccc5ccc(N)nc5c4)c3)c3ncnc(N)c23)n1` [Compound I-114], the results for the concentration for half-maximal inhibition (IC50) in assay [1] and in assay [2] (setting [5]) were 1000 to 10000 nM and above 1000 nM, respectively.

On to `CCc1cc(N2CCNCC2)c2ccc(OCc3cncc(-n4cc(-c5ccn(C)n5)c5c(N)ncnc54)c3)cc2n1` [Compound I-121], for which the concentration for half-maximal inhibition (IC50) in assay [1] is below 1000 nM; in assay [2] (setting [5]), above 1000 nM; in assay [3] it was 1000 to 10000 nM.

Regarding `CNc1ccc2ccc(OCc3cncc(-n4cc(-c5ccc(C)o5)c5c(N)ncnc54)c3)cc2n1` [Compound I-234], the figures for the IC50 in assay [1], in assay [2] (setting [5]) and in assay [3] were 1000 to 10000 nM, above 1000 nM and 1000 to 10000 nM, respectively.

On to `CNc1ccc2ccc(OCc3cncc(-n4cc(Cl)c5c(N)ncnc54)c3)cc2n1` [Compound I-74, 7-((5-(4-amino-5-chloro-7H-pyrrolo[2,3-d]pyrimidin-7-yl)pyridin-3-yl)methoxy)-N-methylquinolin-2-amine], for which the 50% inhibitory concentration (IC50) in assay [4] is 1000 to 10000 nM; in assay [1] it was 1000 to 10000 nM; in assay [2] (setting [5]), above 1000 nM; in assay [3], 1000 to 10000 nM.

As to `Cn1ccc(-c2cn(-c3cncc(CCc4ccc5cc(Br)c(N)nc5c4)c3)c3ncnc(N)c23)n1` [Compound I-123], the IC50 in assay [1] is 1000 to 10000 nM; in assay [2] (setting [5]), above 1000 nM.

Regarding `CNc1ccc2ccc(OCc3cncc(-n4cc(-c5ncco5)c5c(N)ncnc54)c3)cc2n1` [Compound I-235], the IC50 in assay [1] is at least 10000 nM; in assay [2] (setting [5]) it was above 1000 nM.

`CNc1ccc2cc(CCc3cccc(-n4cc(Cl)c5c(N)ncnc54)c3)ccc2n1` [Compound I-70]: the IC50 was 1000 to 10000 nM in assay [4], 1000 to 10000 nM in assay [1], above 1000 nM in assay [2] (setting [5]) and at least 10000 nM in assay [3].

With `CNc1ccc2ccc(OCc3cc(CO)cc(-n4cc(Cl)c5c(N)ncnc54)c3)cc2n1` [Compound I-34], the IC50 in assay [4] was below 1000 nM; in assay [2] (setting [5]), above 1000 nM; in assay [3], at least 10000 nM.

Consider `CNc1ccc2ccc(CCc3cncc(-n4cc(F)c5c(N)ncnc54)c3)cc2n1` [Compound I-116], for which the values for the IC50 in assay [1] and in assay [2] (setting [5]) were 1000 to 10000 nM and above 1000 nM, respectively.

Turning to `CCc1cc(N2CCC(F)(F)CC2)c2ccc(OCc3cncc(-n4ccc5c(N)ncnc54)c3)cc2n1` [Compound I-118], the IC50 in assay [1] is 1000 to 10000 nM; in assay [2] (setting [5]), above 1000 nM.

With `CNc1ccc2ccc(OCc3cncc(-n4cc(C(C)C5CC5)c5c(N)ncnc54)c3)cc2n1` (centres unmarked) [Compound I-120], the IC50 is 1000 to 10000 nM in assay [1] and above 1000 nM in assay [2] (setting [5]).

Turning to `CNc1ccc2ccc(CCc3cncc(-n4ccc5c(N)ncnc54)c3)cc2n1` [Compound I-30], the IC50 in assay [4] was 1000 to 10000 nM; in assay [2] (setting [5]), above 1000 nM; in assay [3] it was 1000 to 10000 nM.

With `CCc1cc(NC)c2ccc(CCc3cncc(-n4cc(-c5ccn(C)n5)c5c(N)ncnc54)c3)cc2n1` [Compound I-122], the half-inhibitory concentration (IC50) in assay [1] is below 1000 nM; in assay [2] (setting [5]), above 1000 nM.

As for `CNc1ccc2ccc(OCc3cncc(-n4cc([C@@H]5CCCO5)c5c(N)ncnc54)c3)cc2n1` [Compound I-113], the results for the half-inhibitory concentration (IC50) in assay [1], in assay [2] and in assay [3] were 1000 to 10000 nM, above 1000 nM and below 1000 nM, respectively.

Consider `CNc1ccc2ccc(OCc3cncc(-n4cc(C5CCCC5)c5c(N)ncnc54)c3)cc2n1` [Compound I-58], for which the IC50 in assay [4] was below 1000 nM; in assay [1], below 1000 nM; in assay [3] it was 1000 to 10000 nM.

`CNc1ccc2ccc(OCc3cccc(-n4cc(Cl)c5c(N)ncnc54)c3)cc2n1` [Compound I-87]: the 50% inhibitory concentration (IC50) in assay [4] is 1000 to 10000 nM; in assay [1] it was 1000 to 10000 nM; in assay [2] (setting [5]), above 1000 nM.

Consider `CCc1cc(NCCOC)c2ccc(CCc3cncc(-n4cc(-c5ccn(C)n5)c5c(N)ncnc54)c3)cc2n1` [Compound I-115], for which the 50% inhibitory concentration (IC50) in assay [1] is below 1000 nM; in assay [2], above 1000 nM; in assay [3] it was below 1000 nM.

With `CNc1ccc2ccc(OCc3cncc(-n4c(C)cc5c(N)ncnc54)c3)cc2n1` [Compound I-36], the IC50 in assay [4] was 1000 to 10000 nM; in assay [2] (setting [5]), above 1000 nM; in assay [3] it was 1000 to 10000 nM.

Consider `Nc1ncnc2c1c(C1CCCO1)cn2-c1cncc(CCc2ccc3ccc(N4CCC4)nc3c2)c1` (centres unmarked) [Compound I-126], for which the IC50 in assay [1] was 1000 to 10000 nM; in assay [2] (setting [5]) it was above 1000 nM; in assay [3], 1000 to 10000 nM.

The record behind these values is patent US20220372040A1, “METTL3 MODULATORS” (Accent Therapeutics, Inc., priority 2020, published 2022).
